PubChem BioAssay (NCI)
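Five concentrations, 48 hours, 96-well plates. TGI: concentration producing complete growth inhibition.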

Key:
Experiment in all cases: NCI tumour cell line growth inhibition, 48 h
[1] = system: ACHN renal
[2] = system: HCC-2998 colon
[3] = system: HCT-15 colon
[4] = system: HL-60(TB) leukemia
[5] = system: HOP-92 NSCLC
[6] = system: HT29 colon
[7] = system: KM12 colon
[8] = system: LOX IMVI melanoma
[9] = system: OVCAR-5 ovarian
[10] = system: PC-3 prostate
[11] = system: RPMI-8226 leukemia
[12] = system: SF-268 CNS
[13] = system: SF-295 CNS
[14] = system: SF-539 CNS
[15] = system: SK-MEL-28 melanoma
[16] = system: T-47D breast
[17] = system: UACC-257 melanoma
[18] = system: UACC-62 melanoma
[19] = system: RXF 393 renal
[20] = system: SNB-75 CNS

| Structure (SMILES) | TGI [1] [µM] | TGI [2] [µM] | TGI [3] [µM] | TGI [4] [µM] | TGI [5] [µM] | TGI [6] [µM] | TGI [7] [µM] | TGI [8] [µM] | TGI [9] [µM] | TGI [10] [µM] | TGI [11] [µM] | TGI [12] [µM] | TGI [13] [µM] | TGI [14] [µM] | TGI [15] [µM] | TGI [16] [µM] | TGI [17] [µM] | TGI [18] [µM] | TGI [19] [µM] | TGI [20] [µM] |
| --- | --- | --- | --- | --- | --- | --- | --- | --- | --- | --- | --- | --- | --- | --- | --- | --- | --- | --- | --- | --- |
| CCOP(=O)(OCC)[C@H]1OC(C)(C)O[C@@H]1CO | > 100 | > 100 | > 100 | > 100 | > 100 | > 100 | > 100 | > 100 | > 100 | > 100 | > 100 | > 100 | > 100 | > 100 | > 100 | > 100 | > 100 | > 100 | – | – |
| COc1cc(Nc2nc3ccc(C(F)(F)F)cc3nc2C(=O)O)cc(OC)c1OC | 51.5 | 34.5 | 35.3 | > 100 | – | 63.3 | 59.4 | 35.6 | > 100 | 56.1 | 91.3 | 46.8 | 81.9 | 86.5 | 80.3 | 78.3 | 43 | 38.2 | 54 | > 100 |
| Cc1nc2ccccc2c(=O)n1NC(=S)Nc1ccc(Cl)cc1[N+](=O)[O-] | > 100 | – | > 100 | > 100 | > 100 | > 100 | > 100 | – | > 100 | > 100 | > 100 | > 100 | > 100 | > 100 | > 100 | > 100 | > 100 | > 100 | > 100 | > 100 |
| O=c1[nH]c(-n2[nH]c3c(c2=O)CCCC3)nc(O)c1-c1ccccc1 | > 100 | – | > 100 | > 100 | > 100 | > 100 | > 100 | – | > 100 | > 100 | > 100 | > 100 | > 100 | – | > 100 | > 100 | > 100 | > 100 | > 100 | – |
| Nc1nc(Nc2ccccc2)sc1C(=O)c1cccs1 | > 69.8 | 32.6 | 27.2 | 12.5 | 71 | 18.2 | 14.9 | 27.3 | 32.1 | 41.9 | 37 | 46.6 | 66.6 | 25.5 | > 62.4 | > 59.3 | 32.5 | 31 | 20.2 | – |
| COC(=O)c1c2c(cc3c1CC1(Cc4cc5c(cc4C1=O)CCC5)C3)CCC2 (configuration not stated) | > 100 | > 100 | > 100 | > 100 | – | > 100 | > 100 | > 100 | > 100 | > 100 | 57.7 | > 100 | > 100 | > 100 | > 100 | > 100 | > 100 | > 100 | – | > 100 |
| CC(C)=CCN1c2ccc(Cl)cc2NC(=O)CC1C (configuration not stated) | 58.3 | > 100 | > 100 | > 100 | 37.8 | 37.2 | 68.6 | 33.2 | > 100 | 61.1 | 50.1 | > 100 | > 100 | 45.4 | > 100 | > 100 | 47.3 | – | 76 | – |
| COC1O[C@H]2[C@H]3[C@@H]1[C@@H](OS(=O)(=O)c1ccc(C)cc1)C(=O)N3C[C@H]2O (some centres not stated) | > 100 | > 100 | > 100 | – | – | > 100 | > 100 | > 100 | > 100 | > 100 | > 100 | > 100 | > 100 | > 100 | > 100 | > 100 | > 100 | > 100 | 81.7 | – |
| Cn1/c(=N\N=C(\CNCCO)[C@@H](O)[C@@H]2OC(c3ccccc3)OC[C@H]2O)sc2ccccc21 (some centres not stated) | 44 | 32 | 54.6 | – | 32 | 38.6 | 33.5 | 31 | 40.3 | 35.5 | – | 30.5 | 33.9 | 32.7 | 33.2 | 47 | 39 | 31.2 | 30.9 | 32.3 |
| C#CCCCOc1ncccn1 | > 100 | > 100 | – | > 100 | > 100 | > 100 | > 100 | > 100 | > 100 | > 100 | > 100 | > 100 | > 100 | > 100 | > 100 | > 100 | > 100 | > 100 | > 100 | – |
| CCOC(=O)C1=CC(C)(C(=O)OCC)Nc2c(nc(OC)[nH]c2=O)N1 (configuration not stated) | > 10 | > 10 | > 10 | – | > 10 | > 10 | > 10 | > 10 | > 10 | > 10 | > 10 | > 10 | > 10 | > 10 | > 10 | > 10 | > 10 | – | > 10 | > 10 |
| NS(=O)(=O)c1ccc(Nc2c3ccccc3nc3c(C(=O)NCCO)cccc23)cc1 | 0.917 | 0.333 | 0.333 | > 1 | 0.618 | 0.302 | 0.283 | 0.267 | 0.358 | 0.432 | 0.337 | 0.303 | 0.605 | 0.27 | 0.338 | 0.169 | 0.315 | 0.303 | 0.237 | – |
| CN(C)/C=N/NC(=O)/C(C#N)=C/N(C)C | > 100 | > 100 | > 100 | > 100 | – | > 100 | > 100 | > 100 | > 100 | > 100 | > 100 | > 100 | > 100 | > 100 | > 100 | > 100 | > 100 | > 100 | > 100 | > 100 |
| Cc1ccc(C(=O)OCC(C)C)cc1N=NN(C)C | > 100 | > 100 | > 100 | > 100 | > 100 | > 100 | > 100 | > 85.2 | > 100 | > 100 | > 100 | > 100 | > 87.5 | > 100 | > 100 | > 100 | 71.1 | > 100 | – | – |
| COC(=O)C1C2CC3C1C3C2C(=O)OC (configuration not stated) | > 100 | > 100 | > 100 | – | > 100 | > 100 | > 100 | > 100 | > 100 | > 100 | – | > 100 | > 100 | > 100 | > 100 | > 100 | > 100 | > 100 | > 100 | > 100 |
| [O-][n+]1onc2c1/C(=N/O)CCC2 | > 100 | > 100 | > 100 | > 100 | – | > 100 | > 100 | > 100 | > 100 | > 100 | > 100 | > 100 | > 100 | > 100 | > 100 | > 100 | > 100 | > 100 | > 100 | > 100 |
| O=c1[nH]c(=O)n(C2CC(O)C(CO)O2)cc1OCC1CCCCC1 (configuration not stated) | > 100 | – | > 100 | > 100 | – | > 100 | > 100 | > 100 | > 100 | > 100 | – | > 100 | > 100 | – | > 100 | > 100 | > 100 | > 100 | > 100 | > 100 |
| O=c1c2cc([N+](=O)[O-])ccc2nc2n1CCCCC2 | > 100 | – | > 100 | > 100 | > 100 | > 100 | > 100 | > 100 | > 100 | > 100 | > 100 | > 100 | > 100 | > 100 | > 100 | > 100 | > 100 | > 100 | > 100 | > 100 |
| C1=NCCNCCNCCN=Cc2ccccc2OCc2cccc(n2)COc2ccccc21 | 83.4 | – | > 100 | 73.7 | > 100 | 51.6 | > 100 | – | > 100 | > 100 | > 100 | > 100 | 94 | 82.3 | > 100 | > 100 | > 100 | > 100 | > 100 | > 100 |
| CC(=O)OCC(OC(C)=O)C(OC(C)=O)C(OC(C)=O)C(C=NN(C(C)=O)S(=O)(=O)c1ccc(/C=C2\NC(=O)NC2=O)cc1)OC(C)=O (configuration not stated) | > 100 | > 100 | > 100 | – | – | > 100 | > 100 | > 100 | > 100 | > 100 | > 100 | > 100 | > 100 | – | – | > 100 | > 100 | > 100 | > 100 | > 100 |
| CC(=O)O[C@H]1CCC2[C@@H]3CCC4Cc5nc6c(nc5C[C@]4(C)C3CC[C@@]21C)CC1CC[C@@H]2C(CC[C@@]3(C)C2CC[C@@H]3C(C)CCCC(C)C)[C@@]1(C)C6 (some centres not stated) | > 100 | – | > 100 | > 100 | > 100 | > 100 | > 100 | > 100 | > 100 | > 100 | > 100 | > 100 | > 100 | > 100 | > 100 | > 100 | > 100 | > 100 | > 100 | > 100 |
| COC(=O)/C=C(/OC)[C@H](C)[C@H](/C=C/c1csc(-c2csc(C(C)C)n2)n1)OC | > 100 | – | > 100 | 99.5 | > 100 | > 100 | > 100 | 5.07 | > 100 | > 100 | 65.8 | > 100 | > 100 | > 100 | > 100 | > 100 | > 100 | > 100 | > 25 | > 100 |
| Cc1ccc2[nH]c3c(c2c1)C1CCC(C(C)(C)C)CC1C1C(=O)N(c2ccc4c(c2)OCO4)C(=O)C31 (configuration not stated) | 3.63 | 5.84 | 16.5 | 11.9 | 6.22 | 16.2 | 19 | 6.25 | 13.6 | 9.17 | 14.7 | 5.04 | 9.85 | 2.74 | 17.9 | 3.94 | 23.7 | 22.9 | 4.11 | – |
| COc1cc(N(Cc2ccc3nc(OC)c(OC)nc3c2)Cc2ccc3nc(OC)c(OC)nc3c2)cc(OC)c1OC | > 50 | – | > 50 | > 50 | – | > 50 | > 50 | > 50 | > 50 | > 50 | > 50 | > 50 | > 50 | > 50 | > 50 | > 50 | > 50 | > 50 | 41.6 | 15.6 |
| Clc1ccc(-c2ccc(-c3nn4c(CNc5ccccc5)nnc4s3)o2)c(Cl)c1 | > 100 | – | > 100 | > 100 | > 100 | > 100 | > 100 | > 100 | > 100 | > 100 | > 100 | > 100 | > 100 | 76.4 | > 100 | > 100 | > 100 | – | 86.2 | > 100 |
